# Laboratory results published in patent US11247990B1, “Bicyclic fused pyridine compounds as inhibitors of TAM kinases” (ARRAY BIOPHARMA INC., priority 2017, dated 2022).
# Key:
# Settings in all cases: averaged IC50
# [1] = target: His-tagged recombinant human MER cytoplasmic domain (Homo sapiens (Human), UniProt Q12866); assay: MER Enzyme Assay (LanthaScreen Eu Kinase Binding, TR-FRET)
# In short: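 Percent of control, derived from ratiometric TR-FRET emission, was fitted to a 4-parameter logistic curve and IC50 taken at 50 POC. Binding was read after 60 min at 22 °C using Eu-based LanthaScreen technology and recombinant His-tagged MER cytoplasmic domain.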
# [2] = target: GST-tagged recombinant human TYRO3 kinase domain (Homo sapiens (Human), UniProt Q06418); assay: TYRO3 Enzyme Assay (LanthaScreen Eu Kinase Binding, TR-FRET)
# In short: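 LanthaScreen Eu binding (tracer displacement) format read by TR-FRET after 60 min at 22 °C. Emission ratio converted to percent of control; IC50 taken where a 4-parameter logistic fit crosses 50 POC.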
# [3] = target: His-tagged recombinant human AXL cytoplasmic domain (Homo sapiens (Human), UniProt P30530); assay: AXL Enzyme Assay (LanthaScreen Eu Kinase Binding, TR-FRET)
# Protocol: Compounds of Formula I were screened for their ability to inhibit AXL kinase using Invitrogen's LanthaScreen™ Eu Kinase Binding technology. […] After a 60-minute incubation at 22° C., the reaction was measured using a PerkinElmer EnVision multimode plate reader via TR-FRET dual wavelength detection, and the percent of control (POC) was calculated using a ratiometric emission factor. […] The POC values are fit to a 4 parameter logistic curve and the IC50 value is point where the curve crosses 50 POC.
# Chain of His-tagged recombinant human AXL cytoplasmic domain (P30530 473-894): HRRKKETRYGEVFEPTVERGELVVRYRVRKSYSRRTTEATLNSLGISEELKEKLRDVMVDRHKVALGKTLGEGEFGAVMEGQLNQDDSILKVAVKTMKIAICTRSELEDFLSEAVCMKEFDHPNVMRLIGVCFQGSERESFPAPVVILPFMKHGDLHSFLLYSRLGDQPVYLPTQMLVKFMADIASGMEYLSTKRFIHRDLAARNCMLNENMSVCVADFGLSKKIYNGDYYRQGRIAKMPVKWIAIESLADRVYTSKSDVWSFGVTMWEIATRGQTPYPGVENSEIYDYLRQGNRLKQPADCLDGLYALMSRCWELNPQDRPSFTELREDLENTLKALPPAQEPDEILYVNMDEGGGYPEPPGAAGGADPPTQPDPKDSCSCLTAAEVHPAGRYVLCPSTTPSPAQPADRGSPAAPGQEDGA
# Chain of His-tagged recombinant human MER cytoplasmic domain (Q12866 527-999): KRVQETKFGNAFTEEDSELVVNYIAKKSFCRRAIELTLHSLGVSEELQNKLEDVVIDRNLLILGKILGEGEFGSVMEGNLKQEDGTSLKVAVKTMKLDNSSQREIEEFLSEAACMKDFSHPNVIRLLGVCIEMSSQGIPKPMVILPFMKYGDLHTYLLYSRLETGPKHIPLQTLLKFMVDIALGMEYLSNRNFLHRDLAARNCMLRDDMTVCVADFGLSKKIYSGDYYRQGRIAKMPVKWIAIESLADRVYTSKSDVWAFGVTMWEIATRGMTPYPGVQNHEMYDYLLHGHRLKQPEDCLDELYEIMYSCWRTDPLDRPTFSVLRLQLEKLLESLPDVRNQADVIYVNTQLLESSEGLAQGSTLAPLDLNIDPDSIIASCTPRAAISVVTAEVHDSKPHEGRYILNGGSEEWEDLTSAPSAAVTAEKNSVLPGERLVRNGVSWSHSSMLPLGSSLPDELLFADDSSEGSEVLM
# Chain of GST-tagged recombinant human TYRO3 kinase domain (Q06418 518-790): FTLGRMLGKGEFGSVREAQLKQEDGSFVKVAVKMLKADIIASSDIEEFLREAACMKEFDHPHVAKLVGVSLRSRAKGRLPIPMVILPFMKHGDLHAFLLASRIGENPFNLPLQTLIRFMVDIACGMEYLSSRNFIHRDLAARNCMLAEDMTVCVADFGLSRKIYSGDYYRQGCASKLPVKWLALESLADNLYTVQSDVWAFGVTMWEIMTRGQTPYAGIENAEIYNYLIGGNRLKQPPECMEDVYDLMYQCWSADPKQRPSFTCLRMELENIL
IC50 [1],IC50 [2],IC50 [3],SMILES
< 10 nM,10 to 100 nM,< 10 nM,"CNc1cc2c(cn1)c(-c1cnn(C)c1)nn2[C@@H]1CC[C@H](Oc2ccccc2)[C@@H](O)C1 (racemic) [Example 470, Racemic-(1S,2S,5R)-5-(3-(1-methyl-1H-pyrazol-4-yl)-6-(methylamino)-1H-pyrazolo[4,3-c]pyridin-1-yl)-2-phenoxycyclohexan-1-ol]"
< 10 nM,< 10 nM,< 10 nM,"CCNc1cc2c(cn1)c(N1CC[C@@H](N(C)C)C1)nn2[C@H]1CC[C@@H](Oc2nccc(C(F)(F)F)c2F)CC1 (stereo in doubt) [Example 334, 3-(®-3-(dimethylamino)pyrrolidin-1-yl)-N-ethyl-1-((1s,4S)-4-((3-fluoro-4-(trifluoromethyl)pyridin-2-yl)oxy)cyclohexyl)-1H-pyrazolo[4,3-c]pyridin-6-amine]"
< 10 nM,100 to 1000 nM,< 10 nM,"CNc1cc2c(cn1)c(-c1ccc(C3(N4CCN(C)CC4)CC3)cc1)nn2[C@H]1CC[C@@H](Oc2ccc(=O)n(C)n2)CC1 [Example 53, 2-methyl-6-(((1s,4s)-4-(6-(methylamino)-3-(4-(1-(4-methylpiperazin-1-yl)cyclopropyl)phenyl)-1H-pyrazolo[4,3-c]pyridin-1-yl)cyclohexyl)oxy)pyridazin-3(2H)-one]"
1000 to 10000 nM,1000 to 10000 nM,1000 to 10000 nM,"Cn1cc(-c2nn([C@H]3CC[C@@H](Oc4ccc(=O)n(C)n4)CC3)c3cc(N)ncc23)cn1 [Example 75, 6-(((1s,4s)-4-(6-amino-3-(1-methyl-1H-pyrazol-4-yl)-1H-pyrazolo[4,3-c]pyridin-1-yl)cyclohexyl)oxy)-2-methylpyridazin-3(2H)-one]"
< 10 nM,100 to 1000 nM,< 10 nM,"CNc1cc2c(cn1)c(-c1ccc(CN3CCN(CCO)CC3)cc1)nn2[C@H]1CC[C@@H](Oc2ccc(=O)n(C)n2)CC1 [Example 78, 6-(((1s,4s)-4-(3-(4-((4-(2-hydroxyethyl)piperazin-1-yl)methyl)phenyl)-6-(methylamino)-1H-pyrazolo[4,3-c]pyridin-1-yl)cyclohexyl)oxy)-2-methylpyridazin-3(2H)-one]"
1000 to 10000 nM,1000 to 10000 nM,1000 to 10000 nM,"CCNc1cc2c(cn1)c(-c1ncco1)nn2[C@H]1CC[C@@H](Oc2ccc(=O)n(C)n2)CC1 [Example 81, 6-(((1s,4s)-4-(6-(ethylamino)-3-(oxazol-2-yl)-1H-pyrazolo[4,3-c]pyridin-1-yl)cyclohexyl)oxy)-2-methylpyridazin-3(2H)-one bis(2,2,2-trifluoroacetate)]"
–,1000 to 10000 nM,1000 to 10000 nM,"CCNc1cc2c(cn1)c(-c1ccn(CCN3CCOCC3)n1)nn2[C@H]1CC[C@@H](Oc2ccc(=O)n(C)n2)CC1 [Example 101, 6-(((1s,4s)-4-(6-(ethylamino)-3-(1-(2-morpholinoethyl)-1H-pyrazol-3-yl)-1H-pyrazolo[4,3-c]pyridin-1-yl)cyclohexyl)oxy)-2-methylpyridazin-3(2H)-one]"
< 10 nM,< 10 nM,< 10 nM,"CNc1cc2c(cn1)c(-c1cnn(C)c1)nn2[C@H]1CC[C@@H](Oc2ccc(=O)[nH]c2C(F)(F)F)CC1 [Example 105, 5-(((1s,4s)-4-(3-(1-methyl-1H-pyrazol-4-yl)-6-(methylamino)-1H-pyrazolo[4,3-c]pyridin-1-yl)cyclohexyl)oxy)-6-(trifluoromethyl)pyridin-2(1H)-one]"
–,1000 to 10000 nM,1000 to 10000 nM,"CCNc1cc2c(cn1)c(-c1cnn(C)c1)nn2[C@H]1CC[C@@H](Oc2cccn(C)c2=O)CC1 [Example 109, 3-(((1s,4s)-4-(6-(ethylamino)-3-(1-methyl-1H-pyrazol-4-yl)-1H-pyrazolo[4,3-c]pyridin-1-yl)cyclohexyl)oxy)-1-methylpyridin-2(1H)-one]"
< 10 nM,10 to 100 nM,< 10 nM,"CCn1c(O[C@H]2CC[C@@H](n3nc(-c4cnn(C)c4)c4cnc(NC)cc43)CC2)cccc1=O [Example 111, 1-ethyl-6-(((1s,4s)-4-(3-(1-methyl-1H-pyrazol-4-yl)-6-(methylamino)-1H-pyrazolo[4,3-c]pyridin-1-yl)cyclohexyl)oxy)pyridin-2(1H)-one]"
–,1000 to 10000 nM,1000 to 10000 nM,"CCNc1cc2c(cn1)c(-c1ccc3c(c1)CN(C)S3(=O)=O)nn2[C@H]1CC[C@@H](Oc2cnn(C)c2C(F)(F)F)CC1 [Example 224, 5-(6-(ethylamino)-1-((1s,4s)-4-((1-methyl-5-(trifluoromethyl)-1H-pyrazol-4-yl)oxy)cyclohexyl)-1H-pyrazolo[4,3-c]pyridin-3-yl)-2-methyl-2,3-dihydrobenzo[d]isothiazole 1,1-dioxide]"
< 10 nM,–,< 10 nM,"CNc1cc2c(cn1)c(-c1cnn(C)c1)nn2[C@H]1CC[C@@H](Oc2ccccc2F)CC1 [Example 353, 1-((1s,4s)-4-(2-fluorophenoxy)cyclohexyl)-N-methyl-3-(1-methyl-1H-pyrazol-4-yl)-1H-pyrazolo[4,3-c]pyridin-6-amine]"
< 10 nM,–,< 10 nM,"CNc1cc2c(cn1)c(-c1cnn(C)c1)nn2[C@H]1CC[C@@H](Oc2cccc(F)c2)CC1 [Example 354, 1-((1s,4s)-4-(3-fluorophenoxy)cyclohexyl)-N-methyl-3-(1-methyl-1H-pyrazol-4-yl)-1H-pyrazolo[4,3-c]pyridin-6-amine]"
< 10 nM,–,< 10 nM,"CNc1cc2c(cn1)c(-c1cnn(C)c1)nn2[C@H]1CC[C@@H](Oc2ccc(F)cc2)CC1 [Example 355, 1-((1s,4s)-4-(4-fluorophenoxy)cyclohexyl)-N-methyl-3-(1-methyl-1H-pyrazol-4-yl)-1H-pyrazolo[4,3-c]pyridin-6-amine]"
< 10 nM,–,< 10 nM,"CNc1cc2c(cn1)c(-c1cnn(C)c1)nn2[C@H]1CC[C@@H](Oc2cccc(F)c2F)CC1 [Example 357, 1-((1s,4s)-4-(2,3-difluorophenoxy)cyclohexyl)-N-methyl-3-(1-methyl-1H-pyrazol-4-yl)-1H-pyrazolo[4,3-c]pyridin-6-amine]"
< 10 nM,–,< 10 nM,"CNc1cc2c(cn1)c(-c1cnn(C)c1)nn2[C@H]1CC[C@@H](Oc2ccc(F)cc2F)CC1 [Example 358, 1-((1s,4s)-4-(2,4-difluorophenoxy)cyclohexyl)-N-methyl-3-(1-methyl-1H-pyrazol-4-yl)-1H-pyrazolo[4,3-c]pyridin-6-amine]"
< 10 nM,–,< 10 nM,"CNc1cc2c(cn1)c(-c1cnn(C)c1)nn2[C@H]1CC[C@@H](Oc2ccccc2Cl)CC1 [Example 360, 1-((1s,4s)-4-(2-chlorophenoxy)cyclohexyl)-N-methyl-3-(1-methyl-1H-pyrazol-4-yl)-1H-pyrazolo[4,3-c]pyridin-6-amine]"
< 10 nM,–,< 10 nM,"CNc1cc2c(cn1)c(-c1cnn(C)c1)nn2[C@H]1CC[C@@H](Oc2cccc(Cl)c2)CC1 [Example 361, 1-((1s,4s)-4-(3-chlorophenoxy)cyclohexyl)-N-methyl-3-(1-methyl-1H-pyrazol-4-yl)-1H-pyrazolo[4,3-c]pyridin-6-amine]"
< 10 nM,–,< 10 nM,"CNc1cc2c(cn1)c(-c1cnn(C)c1)nn2[C@H]1CC[C@@H](Oc2cc(F)ccc2F)CC1 [Example 362, 1-((1s,4s)-4-(2,5-difluorophenoxy)cyclohexyl)-N-methyl-3-(1-methyl-1H-pyrazol-4-yl)-1H-pyrazolo[4,3-c]pyridin-6-amine]"
< 10 nM,–,< 10 nM,"CNc1cc2c(cn1)c(-c1cnn(C)c1)nn2[C@H]1CC[C@@H](Oc2ccccc2C#N)CC1 [Example 363, 2-(((1s,4s)-4-(3-(1-methyl-1H-pyrazol-4-yl)-6-(methylamino)-1H-pyrazolo[4,3-c]pyridin-1-yl)cyclohexyl)oxy)benzonitrile]"
< 10 nM,–,< 10 nM,"CNc1cc2c(cn1)c(-c1cnn(C)c1)nn2[C@H]1CC[C@@H](Oc2ccccc2)CC1 [Example 371, N-methyl-3-(1-methyl-1H-pyrazol-4-yl)-1-((1s,4s)-4-phenoxycyclohexyl)-1H-pyrazolo[4,3-c]pyridin-6-amine]"
< 10 nM,–,< 10 nM,"CNc1cc2c(cn1)c(-c1cnn(C(C)(C)C#N)c1)nn2[C@H]1CC[C@@H](Oc2ccccc2F)CC1 [Example 394, 2-(4-(1-((1s,4s)-4-(2-fluorophenoxy)cyclohexyl)-6-(methylamino)-1H-pyrazolo[4,3-c]pyridin-3-yl)-1H-pyrazol-1-yl)-2-methylpropanenitrile]"
< 10 nM,–,< 10 nM,"CNc1cc2c(cn1)c(-c1cnn(CCN3CCOCC3)c1)nn2[C@H]1CC[C@@H](Oc2ccccc2F)CC1 [Example 397, 1-((1s,4s)-4-(2-fIuorophenoxy)cyclohexyl)-N-methyl-3-(1-(2-morpholinoethyl)-1H-pyrazol-4-yl)-1H-pyrazolo[4,3-c]pyridin-6-amine]"
< 10 nM,–,< 10 nM,"CNc1cc2c(cn1)n(-c1cnn(C)c1)nc2[C@H]1CC[C@@H](Oc2ccccc2F)CC1 [Example 479, 3-((1s,4s)-4-(2-fluorophenoxy)cyclohexyl)-N-methyl-1-(1-methyl-1H-pyrazol-4-yl)-1H-pyrazolo[3,4-c]pyridin-5-amine]"
